In brackets after ≈: the same amount, converted by molar mass.

Holding throughout (assay): Bacterial growth minimal inhibitory concentration (broth microdilution, CLSI M7-A7)
Holding throughout (assay type): cell-based
For orientation: In broth dilution the organism is exposed to a series of concentrations in liquid medium.

In assay [1] the test system is Staphylococcus aureus ATCC29213. Particulars: methicillin-sensitive and quinolone-sensitive strain; for MIC: Staphylococcus aureus, ATCC29213, cation-adjusted Mueller-Hinton Broth, read-out: MIC for S. aureus ATCC29213. A digest of the protocol: (§1)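 Cation-adjusted MH broth, microdilution, CLSI M7-A7; MIC in mg/L. Strains: S. aureus A798 and A. baumannii T6474 multiresistant (quinolone-R); S. aureus ATCC29213 MSSA, quinolone-S; M. catarrhalis A894 quinolone-S.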

The test system of assay [2] is Moraxella catarrhalis A894. The settings on record: quinolone-sensitive strain; for MIC: Moraxella catarrhalis, A894, cation-adjusted Mueller-Hinton Broth. The method, boiled down: as §1
The test system of assay [3] is Staphylococcus aureus A798. Particulars: multiply-resistant strain (in particular quinolone-resistant); for MIC: Staphylococcus aureus, A798, cation-adjusted Mueller-Hinton Broth, read-out: MIC for S. aureus A798. A digest of the protocol:
as §1

Assay [4] has as its system Acinetobacter baumannii T6474. The settings on record: multiply-resistant strain (in particular quinolone-resistant); for MIC: Acinetobacter baumannii, T6474, cation-adjusted Mueller-Hinton Broth. The method, boiled down:
as §1

Assay [5] relates to Enterococcus faecium A949. Particulars: multiply-resistant strain (in particular quinolone-resistant); for MIC: Enterococcus faecium, A949, cation-adjusted Mueller-Hinton Broth, read-out: MIC for E. faecium A949. The method, boiled down:
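Broth microdilution after CLSI M7-A7 in cation-adjusted Mueller-Hinton medium gave MIC values in mg/L.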

The mark [6] stands for this setting: cation-adjusted Mueller-Hinton Broth.

In the case of `N#Cc1cccc(-c2cccc(CNCC[C@H]3CN(c4ccc5c(n4)NC(=O)CS5)C(=O)O3)c2)c1` [Example 100, 3′-({2-[(S)-2-oxo-3-(3-oxo-3,4-dihydro-2H-pyrido[3,2-b][1,4]thiazin-6-yl)-oxazolidin-5-yl]-ethylamino}-methyl)-biphenyl-3-carbonitrile], the MIC (usually the lowest concentration found to suppress growth) was at most 0.016 µg/mL in assay [1]; at most 0.016 µg/mL in assay [2]; at most 0.016 µg/mL in assay [3]; 0.125 µg/mL (≈ 0.257 µM) in assay [4]; 0.5 µg/mL (≈ 1.03 µM) in assay [5].
As to `COc1ccnc(-c2cc(CNCC[C@H]3CN(c4ccc5c(n4)NC(=O)CO5)C(=O)O3)ccc2O)c1` [Example 101, 6-((S)-5-{2-[4-hydroxy-3-(4-methoxy-pyridin-2-yl)-benzylamino]-ethyl}-2-oxo-oxazolidin-3-yl)-4H-pyrido[3,2-b][1,4]oxazin-3-one], the MIC is at most 0.016 µg/mL in assay [1]; at most 0.016 µg/mL in assay [2]; at most 0.016 µg/mL in assay [3]; 0.125 µg/mL (≈ 0.254 µM) in assay [4]; 2 µg/mL (≈ 4.07 µM) in assay [5].
Regarding `COc1cccc(-c2nccc(CNCC[C@H]3CN(c4ccc5c(n4)NC(=O)CO5)C(=O)O3)n2)c1` [Example 102, 6-[(S)-5-(2-{[2-(3-methoxy-phenyl)-pyrimidin-4-ylmethyl]-amino}-ethyl)-2-oxo-oxazolidin-3-yl]-4H-pyrido[3,2-b][1,4]oxazin-3-one], the MIC in assay [1] was 0.25 µg/mL (≈ 0.525 µM); in assay [2], 0.063 µg/mL (≈ 0.132 µM); in assay [3], 1 µg/mL (≈ 2.1 µM); in assay [4], 1 µg/mL (≈ 2.1 µM); in assay [5], 4 µg/mL (≈ 8.39 µM).
With `COc1cccc(-c2cnnc(CNCC[C@H]3CN(c4ccc5c(n4)NC(=O)CO5)C(=O)O3)c2)c1` [Example 103, 6-[(S)-5-(2-{[5-(3-methoxy-phenyl)-pyridazin-3-ylmethyl]-amino}-ethyl)-2-oxo-oxazolidin-3-yl]-4H-pyrido[3,2-b][1,4]oxazin-3-one], the MIC in assay [1] worked out at 0.25 µg/mL (≈ 0.525 µM); in assay [2], 0.063 µg/mL (≈ 0.132 µM); in assay [3], 1 µg/mL (≈ 2.1 µM); in assay [4], 0.5 µg/mL (≈ 1.05 µM); in assay [5], 2 µg/mL (≈ 4.2 µM).
For `COc1cccc(-c2cncc(CNCC[C@H]3CN(c4ccc5c(n4)NC(=O)CO5)C(=O)O3)n2)c1` [Example 104, 6-[(S)-5-(2-{[6-(3-methoxy-phenyl)-pyrazin-2-ylmethyl]-amino}-ethyl)-2-oxo-oxazolidin-3-yl]-4H-pyrido[3,2-b][1,4]oxazin-3-one], the MIC in assay [1] is 0.25 µg/mL (≈ 0.525 µM); in assay [2], 0.031 µg/mL (≈ 0.0651 µM); in assay [3] it was 0.25 µg/mL (≈ 0.525 µM); in assay [4] it was 0.5 µg/mL (≈ 1.05 µM); in assay [5] it was 2 µg/mL (≈ 4.2 µM).
In the case of `COc1cccc(-c2cc(CNCC[C@H]3CN(c4ccc5c(n4)NC(=O)CO5)C(=O)O3)cnn2)c1` [Example 105, 6-[(S)-5-(2-{[6-(3-methoxy-phenyl)-pyridazin-4-ylmethyl]-amino}-ethyl)-2-oxo-oxazolidin-3-yl]-4H-pyrido[3,2-b][1,4]oxazin-3-one], the MIC in assay [1] is 4 µg/mL (≈ 8.39 µM); in assay [2], 0.25 µg/mL (≈ 0.525 µM); in assay [3], 8 µg/mL (≈ 16.8 µM); in assay [4], 4 µg/mL (≈ 8.39 µM); in assay [5], above 8 µg/mL.
Take `COc1ccnc(-c2cccc(CNCC[C@H]3CN(c4ccc5c(n4)NC(=O)CO5)C(=O)O3)c2O)c1` [Example 106, 6-((S)-5-{2-[2-hydroxy-3-(4-methoxy-pyridin-2-yl)-benzylamino]-ethyl}-2-oxo-oxazolidin-3-yl)-4H-pyrido[3,2-b][1,4]oxazin-3-one]: the MIC in assay [1] was 0.125 µg/mL (≈ 0.254 µM); in assay [2], at most 0.016 µg/mL; in assay [3] it was 0.125 µg/mL (≈ 0.254 µM); in assay [4], 1 µg/mL (≈ 2.03 µM); in assay [5], 2 µg/mL (≈ 4.07 µM).
Take `COc1cccc(-c2cccc(CNCCc3nn(-c4ccc5c(n4)NC(=O)CO5)c(=O)o3)c2)c1` [Example 107, 6-(5-{2-[(3′-methoxy-biphenyl-3-ylmethyl)-amino]-ethyl}-2-oxo-[1,3,4]oxadiazol-3-yl)-4H-pyrido[3,2-b][1,4]oxazin-3-one]: the MIC in assay [1] worked out at 4 µg/mL (≈ 8.45 µM); in assay [2] it was 0.063 µg/mL (≈ 0.133 µM); in assay [3], 8 µg/mL (≈ 16.9 µM); in assay [4], 2 µg/mL (≈ 4.22 µM); in assay [5] it was 8 µg/mL (≈ 16.9 µM).
As to `COc1cnnc(-c2cccc(CNCCc3nn(-c4ccc5c(n4)NC(=O)CO5)c(=O)o3)c2)c1` [Example 108, 6-(5-{2-[3-(5-methoxy-pyridazin-3-yl)-benzylamino]-ethyl}-2-oxo-[1,3,4]oxadiazol-3-yl)-4H-pyrido[3,2-b][1,4]oxazin-3-one], the MIC in assay [1] is 2 µg/mL (≈ 4.21 µM); in assay [2], 0.125 µg/mL (≈ 0.263 µM); in assay [3], 4 µg/mL (≈ 8.41 µM); in assay [4], 1 µg/mL (≈ 2.1 µM); in assay [5] it was above 8 µg/mL.
Regarding `COc1cccc(-c2cc(CNCC[C@H]3CN(c4ccc5c(n4)NC(=O)CO5)C(=O)O3)ccc2O)n1` [Example 109], the “MIC for S. aureus ATCC29213” value in assay [1] (setting [6]) was 0.031 µg/mL. The “MIC for M. catarrhalis A894” value in assay [2] (setting [6]) was “≦0.016 mg/L”. For the same molecule, in assay [3] (setting [6]), the “MIC for S. aureus A798” value was found to be 0.031 µg/mL. Further, the “MIC for A. baumannii T6474” value in assay [4] (setting [6]) was found to be 0.125 µg/mL. In assay [5] (setting [6]), the “MIC for E. faecium A949” value worked out at 2 µg/mL.
For `COc1cnnc(-c2cncc(CNCC[C@H]3CN(c4ccc5c(n4)NC(=O)CO5)C(=O)O3)c2)c1` [Example 110, (S)-6-(5-(2-(((5-(5-methoxypyridazin-3-yl)pyridin-3-yl)methyl)amino)ethyl)-2-oxooxazolidin-3-yl)-2H-pyrido[3,2-b][1,4]oxazin-3(4H)-one], the MIC is 4 µg/mL (≈ 8.38 µM) in assay [1]; 0.125 µg/mL (≈ 0.262 µM) in assay [2]; 4 µg/mL (≈ 8.38 µM) in assay [3]; 2 µg/mL (≈ 4.19 µM) in assay [4]; above 8 µg/mL in assay [5].
As for `COc1cnnc(-c2ccnc(CNCC[C@H]3CN(c4ccc5c(n4)NC(=O)CO5)C(=O)O3)c2)c1` [Example 111, (S)-6-(5-(2-(((4-(5-methoxypyridazin-3-yl)pyridin-2-yl)methyl)amino)ethyl)-2-oxooxazolidin-3-yl)-2H-pyrido[3,2-b][1,4]oxazin-3(4H)-one], the MIC turned out to be 0.25 µg/mL (≈ 0.524 µM) in assay [1]; 0.031 µg/mL (≈ 0.0649 µM) in assay [2]; 0.5 µg/mL (≈ 1.05 µM) in assay [3]; 0.25 µg/mL (≈ 0.524 µM) in assay [4]; 8 µg/mL (≈ 16.8 µM) in assay [5].

The values are drawn from patent US9527867B2, “Antibacterial biaromatic derivatives” (Actelion Pharmaceuticals Ltd., priority 2013, dated 2016).
